{"source": "patent US20160095816A2", "about": "“ARTICLE AND METHODS FOR ORAL SELF-ADMINISTRATION OF NICOTINE” (priority 2012, published 2016)", "origin": "cited, not measured here", "key": {"[1]": {"conditions": "metabolized in the liver"}, "[2]": {"conditions": "cigarette smoking, inhaled; \"may be as high as\""}}, "data": [{"molecule": "CN1CCCC1c1cccnc1", "note": "(centres unmarked) [Nicotine, 3-(1-Methyl-2-pyrrolidinyl) pyridine]", "values": [{"measurement": "half life in the bloodstream", "setting": "[1]", "value": "1 to 2", "unit": "h"}, {"measurement": "peak of nicotine delivered into the bloodstream through smoking", "setting": "[2]", "value": "30-40 nanograms per milliliter of blood"}]}]}
